Laboratory results from patent US20230295115A1, “SUBSTITUTED ISOQUINOLINYLMETHYL AMIDES, ANALOGUES THEREOF, AND METHODS USING SAME” (priority 2020, published 2023).
Where two headings read alike, the source gives them in different places.

Tested on: HBV rcDNA
Experiment: HepDE19 assay with bDNA quantitation of HBV rcDNA
Format: cell-based, hepatitis B virus (HBV)
Protocol: HepDE19 assay with bDNA quantitation of HBV rcDNA:
HepDE19 (50,000 cells/well) were plated in 96-well collagen-coated tissue-culture treated microtiter plates in DMEM/F12 medium supplemented with 10% fetal bovine serum, 1% penicillin-streptomycin and 1 μg/mL tetracycline and incubated in a humidified incubator at 37° C. and 5% CO2 overnight. Next day, the cells were switched to fresh medium without tetracycline and incubated for 4 hours at 37° C. and 5% CO2. […] The final DMSO concentration in the assay was 0.5%. The plates were incubated for 7 days in a humidified incubator at 37° C. and 5% CO2. Following a 7 day-incubation, the level of rcDNA present in the inhibitor-treated wells was measured using a Quantigene 2.0 bDNA assay kit (Affymetrix, Santa Clara, CA) with HBV specific custom probe set and manufacturers instructions. Concurrently, the effect of compounds on cell viability was assessed using replicate plates, plated at a density of 5,000 cells/well and incubated for 4 days, to determine the ATP content as a measure of cell viability using the cell-titer glo reagent (CTG; Promega Corporation, Madison, WI) as per manufacturer's instructions.

[1] = HepDE19 cells, 7 day incubation, rcDNA measured by Quantigene 2.0 bDNA assay, top concentration 25 μM, read-out: DE-19bDNA EC50
[2] = Hepatitis B virus, HepDE19, 168 h, HepDE19 cells, 7 day incubation, rcDNA measured by Quantigene 2.0 bDNA assay, top concentration 25 μM, read-out: DE-19bDNA EC50
[3] = read-out: DE-19bDNA EC50, HepDE19 cells, 7 day incubation, rcDNA measured by Quantigene 2.0 bDNA assay, top concentration 25 μM
[4] = Hepatitis B virus, HepDE19, 168 h, read-out: DE-19bDNA EC50 (μM), HepDE19 cells, 7 day incubation, rcDNA measured by Quantigene 2.0 bDNA assay, top concentration 25 μM

## CC(c1c[nH]c(=O)c2cc(F)c(F)cc12)N(C)C(=O)c1n[nH]c2ccccc12 (single isomer, unassigned) [Compound 56, N-(1-(6,7-Difluoro-1-oxo-1,2-dihydroisoquinolin-4-yl)ethyl)-N-methyl-2H-indazole-3-carboxamide]
[1]
  EC50: ≥ 25 µM

## CC(c1c[nH]c(=O)c2cc(F)c(F)cc12)N(C)C(=O)c1cn2ccccc2n1 (single isomer, unassigned) [Compound 46, N-(1-(6,7-Difluoro-1-oxo-1,2-dihydroisoquinolin-4-yl)ethyl)-N-methylimidazo[1,2-a]pyridine-2-carboxamide]
[1]
  EC50: 21 µM

## CC(c1c[nH]c(=O)c2cc(F)c(F)cc12)N(C)C(=O)c1ccc2ccn(C)c2c1 (single isomer, unassigned) [Compound 142, N-(1-(6,7-Difluoro-1-oxo-1,2-dihydroisoquinolin-4-yl)ethyl)-N,1-dimethyl-1H-indole-6-carboxamide]
[1]
  EC50: 0.39 µM

## CC(c1c[nH]c(=O)c2c(F)c(F)ccc12)N(C)C(=O)C1Cc2cc(F)ccc2N1 (stereo not drawn) [Compound 75, N-(1-(7,8-Difluoro-1-oxo-1,2-dihydroisoquinolin-4-yl)ethyl)-5-fluoro-N-methylindoline-2-carboxamide]
[1]
  EC50: 0.83 µM

## CC(c1c[nH]c(=O)c2cc(F)c(F)cc12)N(C)C(=O)[C@H]1Cc2ccccc2N1 (single isomer, unassigned) [Compound 21]
[1]
  EC50: 0.3 µM

## C[C@H](c1c[nH]c(=O)c2ccccc12)N(C)C(=O)c1ccc(Br)c(F)c1 [Compound 150, (R)-4-Bromo-3-fluoro-N-methyl-N-(1-(1-oxo-1,2-dihydroisoquinolin-4-yl)ethyl)benzamide]
[2]
  EC50: 0.51 µM

## COc1ncc(C(C)N(C)C(=O)c2ccc(Br)cc2)c2cc(F)c(F)cc12 (single isomer, unassigned) [Compound 164, 4-Bromo-N-(1-(6,7-difluoro-1-methoxyisoquinolin-4-yl)ethyl)-N-methylbenzamide]
[3]
  EC50: 17.2 µM

## CC(c1c[nH]c(=O)c2c(F)c(F)ccc12)N(C)C(=O)c1cc2c([nH]1)CCC(F)(F)C2 (single isomer, unassigned) [Compound 90, N-(1-(7,8-Difluoro-1-oxo-1,2-dihydroisoquinolin-4-yl)ethyl)-5,5-difluoro-N-methyl-4,5,6,7-tetrahydro-1H-indole-2-carboxamide]
[1]
  EC50: 0.37 µM

## CC(c1c[nH]c(=O)c2c(F)c(F)ccc12)N(C)C(=O)C1Nc2ccccc2C1(C)C (stereo not drawn) [Compound 106, N-(1-(7,8-Difluoro-1-oxo-1,2-dihydroisoquinolin-4-yl)ethyl)-N,3,3-trimethylindoline-2-carboxamide]
[1]
  EC50: ≥ 25 µM

## CC(c1c[nH]c(=O)c2cc(F)c(F)cc12)N(C)C(=O)C1Cc2cc(F)ccc2N1 (stereo not drawn) [Compound 64, N-(1-(6,7-Difluoro-1-oxo-1,2-dihydroisoquinolin-4-yl)ethyl)-5-fluoro-N-methylindoline-2-carboxamide]
[1]
  EC50: 0.02 µM

## C[C@H](c1c[nH]c(=O)c2ccccc12)N(C)C(=O)c1cc2c(F)cccc2[nH]1 [Compound 156, (R)-4-Fluoro-N-methyl-N-(1-(1-oxo-1,2-dihydroisoquinolin-4-yl)ethyl)-1H-indole-2-carboxamide]
[2]
  EC50: 0.12 µM

## CC(c1c[nH]c(=O)c2cc(F)c(F)cc12)N(C)C(=O)c1cc2c(Cl)cccn2c1 (single isomer, unassigned) [Compound 78, 8-Chloro-N-(1-(6,7-difluoro-1-oxo-1,2-dihydroisoquinolin-4-yl)ethyl)-N-methylindolizine-2-carboxamide]
[1]
  EC50: 0.01 µM

## CC(c1c[nH]c(=O)c2cc(F)c(F)cc12)N(CCCO)C(=O)c1cc2ccccc2[nH]1 (single isomer, unassigned) [Compound 27, N-(1-(6,7-Difluoro-1-oxo-1,2-dihydroisoquinolin-4-yl)ethyl)-N-(3-hydroxypropyl)-1H-indole-2-carboxamide]
[1]
  EC50: 2.9 µM

## CC(C)CN(C(=O)c1cc2ccccn2c1)C(C)c1c[nH]c(=O)c2cc(F)c(F)cc12 (racemic) [Compound 116, N-(1-(6,7-Difluoro-1-oxo-1,2-dihydroisoquinolin-4-yl)ethyl)-N-isobutylindolizine-2-carboxamide]
[2]
  EC50: 0.08 µM

## C[C@H](c1c[nH]c(=O)c2ccccc12)N(C)C(=O)Cc1ccc(Cl)cc1 [Compound 151, (R)-2-(4-Chlorophenyl)-N-methyl-N-(1-(1-oxo-1,2-dihydroisoquinolin-4-yl)ethyl)acetamide]
[2]
  EC50: 3.54 µM

## C[C@H](c1c[nH]c(=O)c2ccccc12)N(C)C(=O)c1cc2cc(F)c(F)cc2[nH]1 [Compound 159, (R)-5,6-Difluoro-N-methyl-N-(1-(1-oxo-1,2-dihydroisoquinolin-4-yl)ethyl)-1H-indole-2-carboxamide]
[2]
  EC50: 0.1 µM

## CC(c1c[nH]c(=O)c2cc(F)c(F)cc12)N(C)C(=O)c1ccc(Cl)cc1 (single isomer, unassigned) [Compound 132, 4-Chloro-N-(1-(6,7-difluoro-1-oxo-1,2-dihydroisoquinolin-4-yl)ethyl)-N-methylbenzamide]
[3]
  EC50: 0.06 µM

## C[C@H](c1c[nH]c(=O)c2ccccc12)N(C)C(=O)c1cc2cc(F)ccc2[nH]1 [Compound 157, (R)-5-Fluoro-N-methyl-N-(1-(1-oxo-1,2-dihydroisoquinolin-4-yl)ethyl)-1H-indole-2-carboxamide]
[4]
  EC50: 0.15 µM

## C[C@H](c1c[nH]c(=O)c2ccccc12)N(C)C(=O)c1ccc(Br)cc1 [Compound 146, (R)-4-Bromo-N-methyl-N-(1-(1-oxo-1,2-dihydroisoquinolin-4-yl)ethyl)benzamide]
[4]
  EC50: 0.15 µM

## CC(c1c[nH]c(=O)c2cc(F)c(F)cc12)N(C)C(=O)c1ccc(F)c(F)c1 (single isomer, unassigned) [Compound 138, N-(1-(6,7-Difluoro-1-oxo-1,2-dihydroisoquinolin-4-yl)ethyl)-3,4-difluoro-N-methylbenzamide]
[1]
  EC50: 0.45 µM

## CC(c1c[nH]c(=O)c2cc(F)c(F)cc12)N(C)C(=O)c1cc2cccc(F)c2[nH]1 (single isomer, unassigned) [Compound 13, N-(1-(6,7-Difluoro-1-oxo-1,2-dihydroisoquinolin-4-yl)ethyl)-7-fluoro-N-methyl-1H-indole-2-carboxamide]
[1]
  EC50: 3.4 µM

## CC(c1c[nH]c(=O)c2c(F)c(F)ccc12)N(C)C(=O)C1Cc2c(F)cc(F)cc2N1 (stereo not drawn) [Compound 66, N-(1-(7,8-Difluoro-1-oxo-1,2-dihydroisoquinolin-4-yl)ethyl)-4,6-difluoro-N-methylindoline-2-carboxamide]
[1]
  EC50: 0.21 µM

## C[C@H](c1c[nH]c(=O)c2ccccc12)N(C)C(=O)c1cc2cc(F)ccn2c1 [Compound 153, (R)-7-Fluoro-N-methyl-N-(1-(1-oxo-1,2-dihydroisoquinolin-4-yl)ethyl)indolizine-2-carboxamide]
[2]
  EC50: 0.35 µM

## CC(c1c[nH]c(=O)c2cc(F)c(F)cc12)N(C)C(=O)C1Cc2c(F)cc(F)cc2N1 (stereo not drawn) [Compound 101, N-(1-(6,7-Difluoro-1-oxo-1,2-dihydroisoquinolin-4-yl)ethyl)-4,6-difluoro-N-methylindoline-2-carboxamide]
[1]
  EC50: 0.03 µM

## CC(c1c[nH]c(=O)c2cc(F)c(F)cc12)N(C)C(=O)C1Nc2ccccc2C1(C)C (stereo not drawn) [Compound 115, N-(1-(6,7-Difluoro-1-oxo-1,2-dihydroisoquinolin-4-yl)ethyl)-N,3,3-trimethylindoline-2-carboxamide]
[1]
  EC50: 19 µM

## CC(c1c[nH]c(=O)c2cc(F)c(F)cc12)N(CCCO)C(=O)c1cc2ccccc2[nH]1 (single isomer, unassigned) [Compound 28, N-(1-(6,7-Difluoro-1-oxo-1,2-dihydroisoquinolin-4-yl)ethyl)-N-(3-hydroxypropyl)-1H-indole-2-carboxamide]
[1]
  EC50: 0.04 µM

## CC(c1c[nH]c(=O)c2cc(F)c(F)cc12)N(C)C(=O)c1ccc(C(F)(F)F)c(F)c1 (single isomer, unassigned) [Compound 119, N-(1-(6,7-Difluoro-1-oxo-1,2-dihydroisoquinolin-4-yl)ethyl)-3-fluoro-N-methyl-4-(trifluoromethyl) benzamide]
[1]
  EC50: 4.02 µM

## CC(c1c[nH]c(=O)c2cc(F)c(F)cc12)N(C)C(=O)c1cc2c(F)cccc2[nH]1 (single isomer, unassigned) [Compound 7, N-(1-(6,7-Difluoro-1-oxo-1,2-dihydroisoquinolin-4-yl)ethyl)-4-fluoro-N-methyl-1H-indole-2-carboxamide]
[1]
  EC50: 1.7 µM

## COc1ncc(C(C)N(C)C(=O)c2ccc(Br)c(F)c2)c2cc(F)c(F)cc12 (single isomer, unassigned) [Compound 177, 4-Bromo-N-(1-(6,7-difluoro-1-methoxyisoquinolin-4-yl)ethyl)-3-fluoro-N-methylbenzamide]
[1]
  EC50: 20.2 µM

## CC(c1c[nH]c(=O)c2cc(F)c(F)cc12)N(C)C(=O)[C@H]1Cc2ccccc2CN1 (single isomer, unassigned) [Compound 32]
[1]
  EC50: ≥ 25 µM
